Data taken from US20240165144A1, “COMPOSITIONS AND METHODS FOR MODULATING INNATE IMMUNE SIGNALING PATHWAYS” (Dana-Farber Cancer Institute, Inc., priority 2019, published 2024).

Tested on: cGAS-STING signaling
Assay: interferon reporter assay with transfected polar cell extracts
Assay type: cell-based
Settings: iterative HPLC purification on 3 columns; single peak at retention time 24.5 minutes; FIG. 3
Source text: FIG. 1A-FIG. 1B—FIG. 1A cGAS is an innate immune signaling enzyme that generates cyclic GMP-AMP in response to cytosolic DNA, image adapted from (7); FIG. 1B.
Applicants then transfected these extracts into the assay that was used to measure the effects of MB21D2 expression on interferon signaling (FIG. 1B workflow at top).

Nc1ncnc2c1ncn2[C@@H]1O[C@H](CO)[C@@H](O)[C@H]1OP(=O)([O-])OP(=O)([O-])OP(=O)([O-])[O-].[Na+].[Na+].[Na+].[Na+] [2′-ATP, Adenosine 2′-Triphosphate, Sodium Salt]
anti-STING activity of HPLC-purified fraction: anti-STING activity was localized to a single peak
